Results from patent US20050106114A1, “Process for improving the sun protection factor of cellulosic fibre material” (priority 2002, published 2005).

Key:
[1] = Sun Protection Factor of treated fabric, AS/NZS 4399:1996, Melbourne sunlight; conditions: Cotton-Poplin; bleached, then fresh bath with 0.01% UV absorber (102) followed by 0.2% compound (101), relative to fabric weight; average of 4 measurements
Text: (§1) The sun protection factor is defined as the ratio of the harmful dose of UV energy on protected skin to the harmful dose of UV energy on unprotected skin. Accordingly, a sun protection factor is also a measure of the transmissivity of fibre materials untreated and of those treated with FWA's and reactive UV absorbers described in this invention.
(§2) The sun protection factor can be determined, for example, by the method described by B. L. Diffey and J.Robson in J.Soc.Cosmet.Chem., 40, 127-133 (1989).
(§3) Two samples each of 10 g. of a pre-washed cellulose fabric (cotton cretonne) are treated in an AHIBA® dyeing machine for 60 minutes at 95° C. at a liquor ratio of 1:20 in two different aqueous liquors.
(§4) A) 3.0 ml/l hydrogen peroxide 35% • 2.0 ml/l sodium silicate 38° Bé • 2.0 ml/l caustic soda 36° Bé • 0.5 g/l ULTRAVON EL
(§5) B) The same liquor as in A), but containing additionally • 0.012% compound of formula (101) according to Example 1.
If the procedure of Example 9 is repeated, but with samples of different cellulose fabric (cotton poplin) the results of the following table are obtained.
Two samples each of 10 g. of a pre-washed cellulose fabric (cotton cretonne or cotton poplin, respectively) are treated in an AHIBA® dyeing machine for 60 minutes at 95° C. at a liquor ratio of 1:20 in an aqueous liquor containing: […]

[2] = as above; conditions: Cotton-cretone; bleached, then fresh bath with 0.01% UV absorber (102) followed by 0.2% compound (101), relative to fabric weight; average of 4 measurements
Text: as §1, §2, §3, §4, §5
Two samples each of 10 g. of a pre-washed cellulose fabric (cotton cretonne or cotton poplin, respectively) are treated in an AHIBA® dyeing machine for 60 minutes at 95° C. at a liquor ratio of 1:20 in an aqueous liquor containing:
The samples are then treated for 10 minutes at 40° C. at a liquor ratio of 1:20 in a fresh bath containing 0.01% (relative to the weight of the fabric) of the compound of the formula [drawing 25] […]

CCOc1ccc(NC(=O)C(=O)Nc2ccc(Nc3nc(Cl)nc(Nc4ccc(S(=O)(=O)CCOS(=O)(=O)[O-])cc4)n3)cc2)cc1S(=O)(=O)[O-].[Na+].[Na+] [compound (102)]
SPF value [1]: additional improvement
SPF value [2]: additional improvement
